IC50 data for six compounds are collected here from patent publication US20250122191A1, “COMPOUNDS AS BCL-2 INHIBITORS” (Fochon Biosciences, Ltd, priority 2021, published 2025).

pIC50: −log10 of the molar value.

This experiment has as its system Toledo cells. Put plainly: Cell proliferation assay (MTS), Toledo cells. It is filed as cell-based. As to conditions: Homo sapiens, 72 h. As for the experimental part: MTS testing kit was purchased from Promega (Madison, WI, USA). The RPMI-1640, Fetal bovine serum and Penicillin-Streptomycin were purchased from BI (Biological Industries, Beit Haemek, Israel). Dimethyl sulfoxide (DMSO) was purchased from Sigma (St. Louis., MO, USA). Toledo (ATCC catalog #: CRL-2631) cells were cultured in RPMI-1640 supplemented with Penicillin-Streptomycin and 10% FBS.
To investigate whether a compound is able to inhibit the activity of BCL-2 in cells, a mechanism-based assay using Toledo lines was developed. In this assay, the inhibition of BCL-2 was reflected by the inhibition of cell proliferation of Toledo cells. Cells were plated into 96-well plates at the optimized cell density of 30000 cells/well. Plates were incubated at 37° C., with 5% CO2 for 4 h. Compounds were serially diluted and added to the plates with the final concentrations of 10000, 3333.3, 1111.1, 370.4, 123.5, 41.2, 13.7, 4.6 and 1.5 nM. Plates were incubated at 37° C., with 5% CO2 for 72 h. 20 μl MTS was added into each well and the plates were incubated at 37° C., with 5% CO2 for exactly 2 h. The absorbance was measured by a microplate reader at 490 nm. IC50 was calculated using GraphPad Prism 5.0 software.
Usually pIC50 stands for −log10 of the IC50, conventionally taken in molar units. In turn, `CCOc1nc2[nH]cc(F)c2cc1Oc1cc(N2CCC3(CC2)CC(N2CCN(Cc4ccc(OC)cn4)C[C@H]2c2ccccc2C(C)C)C3)ccc1C(=O)NS(=O)(=O)c1cnc(NC[C@H]2CC[C@](C)(O)CC2)c([N+](=O)[O-])c1` [Example 121, 2-((6-ethoxy-3-fluoro-1H-pyrrolo[2,3-b]pyridin-5-yl)oxy)-N-((6-((((1r,4r)-4-hydroxy-4-methylcyclohexyl)methyl)amino)-5-nitropyridin-3-yl)sulfonyl)-4-(2-((R)-2-(2-isopropylphenyl)-4-((5-methoxypyridin-2-yl)methyl)piperazin-1-yl)-7-azaspiro[3.5]nonan-7-yl)benzamide] gave a pIC50 of 9.00.

With `CCOc1nc2[nH]cc(F)c2cc1Oc1cc(N2CCC3(CC2)CC(N2CCN(C4CC4)C[C@H]2c2ccccc2C(C)C)C3)ccc1C(=O)NS(=O)(=O)c1cnc(NC[C@H]2CC[C@](C)(O)CC2)c([N+](=O)[O-])c1` [Example 144, 4-(2-((R)-4-cyclopropyl-2-(2-isopropylphenyl)piperazin-1-yl)-7-azaspiro[3.5]nonan-7-yl)-2-((6-ethoxy-3-fluoro-1H-pyrrolo[2,3-b]pyridin-5-yl)oxy)-N-((6-((((1r,4r)-4-hydroxy-4-methylcyclohexyl)methyl)amino)-5-nitropyridin-3-yl)sulfonyl)benzamide], the pIC50 is 9.00.

Compound `COc1nc2[nH]cc(F)c2cc1Oc1cc(N2CCC3(CC2)CC(N2CCN(C(C)=O)C[C@H]2c2ccccc2C(C)C)C3)ccc1C(=O)NS(=O)(=O)c1cnc(NC[C@H]2CC[C@](C)(O)CC2)c([N+](=O)[O-])c1` [Example 146, 4-(2-((R)-4-acetyl-2-(2-isopropylphenyl)piperazin-1-yl)-7-azaspiro[3.5]nonan-7-yl)-2-((3-fluoro-6-methoxy-1H-pyrrolo[2,3-b]pyridin-5-yl)oxy)-N-((6-((((1r,4r)-4-hydroxy-4-methylcyclohexyl)methyl)amino)-5-nitropyridin-3-yl)sulfonyl)benzamide] had a pIC50 of 9.00.

`CCOc1nc2[nH]cc(F)c2cc1Oc1cc(N2CCC3(CC2)CC(N2CCN(C(C)=O)C[C@H]2c2ccccc2C(C)C)C3)ccc1C(=O)NS(=O)(=O)c1cnc(NC[C@H]2CC[C@](C)(O)CC2)c([N+](=O)[O-])c1` [Example 147, 4-(2-((R)-4-acetyl-2-(2-isopropylphenyl)piperazin-1-yl)-7-azaspiro[3.5]nonan-7-yl)-2-((6-ethoxy-3-fluoro-1H-pyrrolo[2,3-b]pyridin-5-yl)oxy)-N-((6 ((((1r,4r)-4-hydroxy-4-methylcyclohexyl)methyl)amino)-5-nitropyridin-3-yl)sulfonyl)benzamide]: the pIC50 was 9.00.

`CC(=O)N1CCN(C2CC3(CCN(c4ccc(C(=O)NS(=O)(=O)c5cnc(NC[C@H]6CC[C@](C)(O)CC6)c([N+](=O)[O-])c5)c(Oc5cnc6[nH]cc(F)c6c5)c4)CC3)C2)[C@H](c2ccccc2C(C)C)C1` [Example 148, 4-(2-((R)-4-acetyl-2-(2-isopropylphenyl)piperazin-1-yl)-7-azaspiro[3.5]nonan-7-yl)-2-((3-fluoro-1H-pyrrolo[2,3-b]pyridin-5-yl)oxy)-N-((6-((((1r,4r)-4-hydroxy-4-methylcyclohexyl)methyl)amino)-5-nitropyridin-3-yl)sulfonyl)benzamide] had a pIC50 of 9.00.

As to `CCOc1nc2[nH]cc(F)c2cc1Oc1cc(N2CCC3(CC2)CC(N2CCN(Cc4ccncc4)C[C@H]2c2ccccc2C(C)C)C3)ccc1C(=O)NS(=O)(=O)c1cnc(NC[C@H]2CC[C@](C)(O)CC2)c([N+](=O)[O-])c1` [Example 238, 2-((6-ethoxy-3-fluoro-1H-pyrrolo[2,3-b]pyridin-5-yl)oxy)-N-((6-((((1r,4r)-4-hydroxy-4-methylcyclohexyl)methyl)amino)-5-nitropyridin-3-yl)sulfonyl)-4-(2-((R)-2-(2-isopropylphenyl)-4-(pyridin-4-ylmethyl)piperazin-1-yl)-7-azaspiro[3.5]nonan-7-yl)benzamide], the pIC50 was 9.00.
